From patent US9890117B2, “Benzamide compounds and related methods of use” (Northwestern University, priority 2012, dated 2018)
pEC50: −log10 of the molar value. Values after ≈ are worked out from the molar mass of the structure shown.

Key:
[1] = cited from earlier work
SIRT1 = target: T1, SIRT1 (Homo sapiens, UniProt Q96EB6); experiment: Fluor-de-Lys biochemical sirtuin deacetylation assay, SIRT1 counter-screen; conditions: for SIRT1 inhibition: 10 μM counter-screen
T1 sequence (Q96EB6 1-747): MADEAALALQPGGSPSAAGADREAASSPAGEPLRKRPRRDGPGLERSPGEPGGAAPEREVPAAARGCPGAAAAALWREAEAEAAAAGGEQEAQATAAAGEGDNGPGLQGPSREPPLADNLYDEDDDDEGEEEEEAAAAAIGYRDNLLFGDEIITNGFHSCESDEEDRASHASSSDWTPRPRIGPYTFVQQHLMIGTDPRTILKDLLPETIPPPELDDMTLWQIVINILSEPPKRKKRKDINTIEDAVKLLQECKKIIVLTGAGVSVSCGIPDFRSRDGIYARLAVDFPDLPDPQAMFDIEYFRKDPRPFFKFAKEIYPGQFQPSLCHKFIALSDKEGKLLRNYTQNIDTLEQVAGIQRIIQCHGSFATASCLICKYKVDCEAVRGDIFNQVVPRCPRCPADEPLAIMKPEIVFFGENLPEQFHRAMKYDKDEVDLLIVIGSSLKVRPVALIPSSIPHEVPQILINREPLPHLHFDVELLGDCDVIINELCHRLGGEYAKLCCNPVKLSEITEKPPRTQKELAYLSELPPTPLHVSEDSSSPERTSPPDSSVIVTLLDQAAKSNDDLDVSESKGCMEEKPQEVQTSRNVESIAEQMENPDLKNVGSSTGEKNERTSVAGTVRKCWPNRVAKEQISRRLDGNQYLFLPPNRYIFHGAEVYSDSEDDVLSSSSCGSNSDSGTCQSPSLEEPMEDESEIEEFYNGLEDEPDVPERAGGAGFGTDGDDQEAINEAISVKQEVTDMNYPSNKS
Description: (§1) To evaluate the potency and selectivity of the synthesized compounds robust, sensitive, and quantitative, biochemical sirtuin deacetylation assays were employed. (SIRT2 then SIRT1 and SIRT3 for selectivity). Sirtuin activity was assessed using the Fluor-de-Lys assay with recombinant active enzymes SIRT1, SIRT2, and the catalytically active fragment of SIRT3, as described in the literature. […] AK-1 was included as the reference compound with each assay. […] Those compounds also were subjected to SIRT1 and SIRT3 assays to determine sirtuin selectivity.
(§2) As discussed above, Tables 1-10 are presented and followed by details relating to the synthesis and characterization of compounds prepared. Inhibition assays and related testing of such compounds are conducted according to well-known literature protocols including those found in Silverman, et al., Biorg. Med. Chem. Lett. 22 (2012) 2789-2793 and the references cited therein, such references and tests incorporated herein by reference.

[2] = target: T2, catalytically active fragment of SIRT3 (Homo sapiens, UniProt Q9NTG7); experiment: Fluor-de-Lys biochemical sirtuin deacetylation assay, SIRT3 counter-screen; conditions: 10 μM counter-screen
T2 construct: the catalytically active fragment of SIRT3
T2 sequence (Q9NTG7 118-380 limits assumed): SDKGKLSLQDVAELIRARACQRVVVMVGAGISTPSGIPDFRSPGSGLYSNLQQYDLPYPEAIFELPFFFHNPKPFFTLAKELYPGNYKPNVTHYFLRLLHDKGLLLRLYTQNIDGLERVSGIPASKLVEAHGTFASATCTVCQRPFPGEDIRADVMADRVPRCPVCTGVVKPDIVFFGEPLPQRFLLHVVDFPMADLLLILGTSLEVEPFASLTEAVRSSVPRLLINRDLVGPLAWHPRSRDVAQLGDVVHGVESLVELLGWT
Description: as §1, §2

[3] = tested on: α-tubulin K40 acetylation (SIRT2 substrate) in N2a cells; experiment: α-tubulin K40 acetylation (Western) in neuronal N2a cells; type: cell-based; conditions: N2a cells, 10, 25, 50 μM, 6 h
Description: FIGS. 2A-B. Cell-based assay for evaluating the bioactivity of SIRT2 inhibitors. A) Extracts from neuronal N2a cells treated with 61 and 64 for 6 h were resolved on SDS-PAGE and analyzed by Western analysis using antibodies specific to acetylated α-tubulin, and normalized to GADPH and total α-tubulin (not shown) levels.
(§3) To assess SIRT2 inhibition activity in cells, an increase in α-tubulin K40 acetylation (α-tubulin is a substrate for SIRT2) in neuronal N2a and in wild type and HD ST141 cell lines was measured. In this bioactivity test, extracts from compound-treated cells were resolved on SDS-PAGE and subjected to Western analysis using primary antibodies specific to K40 acetylated α-tubulin. Trichostatin A (TSA), a potent HDAC inhibitor, was used as a positive control. To normalize the levels of acetylated α-tubulin we used total α-tubulin and GADPH proteins, detected by Western reactive antibodies specific to total α-tubulin and GADPH. […] FIGS. 2A-B show the bioactivity of 61 and 64 in N2a cells at three tested concentrations (10, 25, and 50 μM). Toxicity of the compounds was monitored in both cell lines, and most of them were non-toxic up to 50 μM in a 6 h treatment.

[4] = Microsomal stability screen, human; conditions: 1 μM
[5] = Microsomal stability screen, mouse; conditions: 1 μM
N2a cells = experiment: Toxicity monitoring in N2a cells; type: cell-based
Description: as §3

WT st14a cells = experiment: Toxicity monitoring in WT st14a cells; type: cell-based; conditions: up to 18 h treatment
SIRT2 = target: T3, SIRT2 (Homo sapiens, UniProt Q8IXJ6); experiment: Fluor-de-Lys biochemical sirtuin deacetylation assay, SIRT2; conditions: for SIRT2 inhibition potency compared with AK-1: dose-response, five doses, side-by-side with AK-1; for inhibition at 10 µM: sulfone, sulfoxide, thioether derivatives of C2-8 scaffold
T3 construct: recombinant active enzymes SIRT1, SIRT2, and the catalytically active fragment of SIRT3
T3 sequence (Q8IXJ6 1-389): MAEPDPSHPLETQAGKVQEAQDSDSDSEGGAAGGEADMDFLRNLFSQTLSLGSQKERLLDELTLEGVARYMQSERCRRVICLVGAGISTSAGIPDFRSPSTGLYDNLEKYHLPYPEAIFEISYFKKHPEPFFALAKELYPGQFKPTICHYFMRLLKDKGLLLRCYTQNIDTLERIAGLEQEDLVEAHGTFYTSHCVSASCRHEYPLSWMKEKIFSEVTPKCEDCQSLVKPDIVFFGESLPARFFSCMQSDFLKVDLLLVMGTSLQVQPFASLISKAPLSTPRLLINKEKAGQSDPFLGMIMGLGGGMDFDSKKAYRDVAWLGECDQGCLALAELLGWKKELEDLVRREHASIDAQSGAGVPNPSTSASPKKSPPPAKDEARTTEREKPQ

[6] = tested on: α-tubulin K40 acetylation (SIRT2 substrate) in wild type and HD ST141 cell lines; experiment: α-tubulin K40 acetylation (Western) in wild type and HD ST141 cell lines; type: cell-based
Description: as §3

PBS Express solubility = conditions: aqueous buffer, kinetic from dmso stock
[7] = Microsomal intrinsic clearance, human; conditions: for microsomal CLint at 1 μM / half-life at 1 μM: human, microsomes
[8] = Microsomal intrinsic clearance, mouse; conditions: for microsomal CLint at 1 μM / half-life at 1 μM: mouse, microsomes
polyQ aggregation = conditions: cell-based model; read-out: suppression of aggregation, EC50; cited from earlier work
[9] = tested on: huntingtin (htt) aggregation; conditions: R6/2 mice; cited from earlier work
htt aggregation = conditions: 140 CAG knock-in model of HD; cited from earlier work
[10] = in vivo; cited from earlier work

SMILES: O=C(Nc1cccc([N+](=O)[O-])c1)c1cccc(S(=O)(=O)N2CCCCCC2)c1 [AK-1]
- aqueous solubility [1]: low aqueous solubility

SMILES: O=C(Nc1cccc(Br)c1)c1cccc(S(=O)(=O)N2CCCCCC2)c1 [AK-7]
- aqueous solubility [1]: low aqueous solubility

SMILES: O=C(Nc1nccs1)c1cccc(S(=O)(=O)Nc2ccc(Cl)cc2)c1 [Compound 31, 3-(N-(4-chlorophenyl)sulfamoyl)-N-(thiazol-2-yl)benzamide]
- inhibition at 10 µM (SIRT1; 10 μM): 65%
- SIRT3 inhibition [2]: totally inactive

SMILES: CN(c1ccc(Cl)cc1)S(=O)(=O)c1cccc(C(=O)Nc2ccc(O)cn2)c1 [Compound 58, 3-(N-(4-chlorophenyl)-N-methylsulfamoyl)-N-(5-hydroxypyridin-2-yl)benzamide]
- SIRT3 inhibition [2]: minimal SIRT3 inhibition

SMILES: CN(c1ccc(Cl)cc1)S(=O)(=O)c1cccc(C(=O)Nc2ccc(S(C)(=O)=O)cc2)c1 [Compound 61, 3-(N-(4-Chlorophenyl)-N-methylsulfamoyl)-N-(4-(methylsulfonyl)phenyl)benzamide]
- increase in α-tubulin K40 acetylation [3]: dose-dependent increase
- Mean remaining parent NADPH-free (%) [4]: 112%
- Mean remaining parent with NADPH (%) [4]: 2%
- Mean remaining parent NADPH-free (%) [5]: 100%
- Mean remaining parent with NADPH (%) [5]: 4%

SMILES: CN(c1ccc(Cl)cc1)S(=O)(=O)c1cccc(C(=O)Nc2ccc(C#N)cc2)c1 [Compound 64, 3-(N-(4-Chlorophenyl)-N-methylsulfamoyl)-N-(4-cyanophenyl)benzamide]
- increase in α-tubulin K40 acetylation [3]: dose-dependent increase

SMILES: COc1ccc(N(C)S(=O)(=O)c2cccc(C(=O)Nc3ccc(C#N)cc3)c2)cc1 [Compound 90, N-(4-Cyanophenyl)-3-(N-(4-methoxyphenyl)-N-methylsulfamoyl)benzamide]
- toxicity (N2a cells; 25 μM): partially toxic
- toxicity (N2a cells; 50 μM): toxic
- toxicity (WT st14a cells): no toxicity was observed
- Mean remaining parent NADPH-free (%) [4]: 106%
- Mean remaining parent with NADPH (%) [4]: 2%
- Mean remaining parent NADPH-free (%) [5]: 90%
- Mean remaining parent with NADPH (%) [5]: 2%

SMILES: CC(=O)c1ccc(N(C)S(=O)(=O)c2cccc(C(=O)Nc3ccc(C#N)cc3)c2)cc1 [Compound 106, 3-(N-(4-Acetylphenyl)-N-methylsulfamoyl)-N-(4-cyanophenyl)benzamide]
- SIRT1 inhibition (SIRT1): minimal SIRT1 inhibition
- SIRT3 inhibition [2]: minimal SIRT3 inhibition

SMILES: CN(c1ccc(S(C)(=O)=O)cc1)S(=O)(=O)c1cccc(C(=O)Nc2ccc(C#N)cc2)c1 [Compound 115, N-(4-Cyanophenyl)-3-(N-methyl-N-(4-(methylsulfonyl)phenyl)sulfamoyl)benzamide]
- SIRT2 inhibition potency compared with AK-1 (SIRT2): significantly more potent
- SIRT1 inhibition (SIRT1): minimal SIRT1 inhibition
- increase in α-tubulin K40 acetylation [3]: did not show any significant increase
- increase in α-tubulin K40 acetylation [6]: did not show any significant increase

SMILES: N#Cc1ccc(NC(=O)c2cccc(S(=O)(=O)Cc3ccc(Cl)cc3)c2)cc1 [Compound 174, 3-((4-Chlorobenzyl)sulfonyl)-N-(4-cyanophenyl)benzamide]
- inhibition at 10 µM (SIRT2): 40%
- potency compared with 59 (SIRT2; SIRT2 assay (61 also cell-based tubulin deacetylation assay)): more potent than 59
- SIRT2 inhibition potency compared with AK-1 (SIRT2): equal or just slightly better potency
- solubility at 45 min (PBS Express solubility): 62.5 µM (≈ 25.7 µg/mL)
- solubility at 16 h (PBS Express solubility): 62.5 µM (≈ 25.7 µg/mL)
- Mean remaining parent NADPH-free (%) [4]: 93%
- Mean remaining parent with NADPH (%) [4]: 89%
- Mean remaining parent NADPH-free (%) [5]: 100%
- Mean remaining parent with NADPH (%) [5]: 68%

SMILES: C[S+]([O-])c1ccc(NC(=O)c2cccc(SCc3ccc(Cl)cc3)c2)cc1 (stereo not shown) [Compound 182, 3-((4-chlorobenzyl)thio)-N-(4-(methylsulfinyl)phenyl)benzamide]
- inhibition at 10 µM (SIRT2): 60%
- Fraction remaining, last time point (%) (Plasma half life; Mouse plasma, 5 μM): 62%
- half-life at 5 μM (Plasma half life; mouse, plasma): 89 min
- solubility at 45 min (PBS Express solubility): 15.6 µM (≈ 6.49 µg/mL)
- solubility at 16 h (PBS Express solubility): 15.6 µM (≈ 6.49 µg/mL)
- % remaining 60 min ([7]; 1 μM, 60 min): 5.3%
- microsomal CLint at 1 μM ([7]; NADPH-dependent CLint): 241 µL/min/mg
- half-life at 1 μM ([7]; NADPH-dependent T1/2 (min)): 9.6 min
- microsomal CLint at 1 μM ([7]; NADPH-free CLint): 39 µL/min/mg
- half-life at 1 μM ([7]; NADPH-free T1/2 (min)): 59 min
- % remaining 60 min ([8]; 1 μM, 60 min): 0.8%
- microsomal CLint at 1 μM ([8]; NADPH-dependent CLint): 445 µL/min/mg
- half-life at 1 μM ([8]; NADPH-dependent T1/2 (min)): 5.2 min
- microsomal CLint at 1 μM ([8]; NADPH-free CLint): 58 µL/min/mg
- half-life at 1 μM ([8]; NADPH-free T1/2 (min)): 40 min

SMILES: O=C(Nc1ccc(Br)cc1)c1cccc(S(=O)(=O)Nc2ccc(Br)cc2)c1 [Compound C2-8]
- pEC50 (polyQ aggregation): 7.30
- inhibition of huntingtin (htt) aggregation in the striatum [9]: 25-30%
- reduction of htt aggregation (htt aggregation): 50%
- toxicity in acute and chronic tolerability studies [10]: not toxic
- aqueous solubility [1]: low aqueous solubility

SMILES: CC(C)[N+](C)(CCOC(=O)C1c2ccccc2Oc2ccccc21)C(C)C [Propantheline, reference compound]
- Fraction remaining, last time point (%) (Plasma half life; Mouse plasma, 5 μM): 3.4%
- Plasma T1/2 (Plasma half life; Mouse plasma, 5 μM): 18 min
